According to US10570118B2, “Isoquinolones as BTK inhibitors” (Boehringer Ingelheim International GmbH, priority 2016, dated 2020):
pIC50: −log10 of the molar value.

The compounds below were run against human full length His-tagged BTK (Homo sapiens (Human), UniProt Q06187) (assay: BTK Lanthscreen Eu Kinase Binding assay). Conditions: TR-FRET tracer displacement, 2 nM BTK, 30 min pre-incubation.
Protocol: BTK Lanthscreen® Eu Kinase Binding assay:
A Lanthscreen® Eu Kinase Binding assay (Life Technologies) was performed to quantitate the ability of test compounds to bind to BTK. The assay is based on the binding and displacement of Alexa Fluor647-labeled Kinase Tracer #236 to the ATP-binding site of human full length His-tagged BTK (Life Technologies cat # PV3587) with TR-FRET detection using a europium-labeled anti-His antibody. The assay was assembled in 384-well low volume NBS black plates (Corning) where 2 nM BTK and test compound in DMSO at varying concentrations were pre-incubated for 30 min at 28° C. in assay buffer consisting of 50 mM HEPES, pH 7.4, 10 mM MgCl2, 1 mM EGTA. 100 μM Na3VO4 and 0.01% Brij 35. Then, 2 nM of Eu-anti His antibody and 30 nM Kinase Tracer were added and incubated for […] at 28° C. Following incubation, TR-FRET signal was read on an Envision plate reader (Excitation: 340 nm; Emissions: 615 and 665 nm). The 665: 615 nm emission ratio was calculated and converted to POC compared to control and blank wells.

Sequence of human full length His-tagged BTK (Q06187 whole entry): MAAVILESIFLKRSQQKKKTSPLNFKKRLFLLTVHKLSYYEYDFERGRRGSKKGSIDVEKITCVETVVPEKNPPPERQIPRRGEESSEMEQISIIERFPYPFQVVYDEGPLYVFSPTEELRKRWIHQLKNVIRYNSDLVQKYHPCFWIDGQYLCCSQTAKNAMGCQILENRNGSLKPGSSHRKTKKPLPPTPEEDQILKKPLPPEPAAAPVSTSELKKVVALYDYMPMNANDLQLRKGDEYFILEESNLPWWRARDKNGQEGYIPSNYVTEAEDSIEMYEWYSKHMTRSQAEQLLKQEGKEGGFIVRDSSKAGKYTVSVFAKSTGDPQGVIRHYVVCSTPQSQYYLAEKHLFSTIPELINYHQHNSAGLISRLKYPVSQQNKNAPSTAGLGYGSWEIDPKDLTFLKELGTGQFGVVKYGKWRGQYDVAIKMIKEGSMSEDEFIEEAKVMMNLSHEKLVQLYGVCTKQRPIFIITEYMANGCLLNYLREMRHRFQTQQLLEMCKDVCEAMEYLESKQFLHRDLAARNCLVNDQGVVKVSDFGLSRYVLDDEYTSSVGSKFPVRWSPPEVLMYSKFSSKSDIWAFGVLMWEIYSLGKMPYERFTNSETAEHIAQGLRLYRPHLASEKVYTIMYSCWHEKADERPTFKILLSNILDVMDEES

In order of rising pIC50:
1. C=CC(=O)N1CCC(c2cc3cc(C4CC4)ccc3c(=O)n2-c2cccc(-c3ccnc(N)c3F)c2CO)C1 (stereo not drawn) [Example 37]  6.21
2. C=CC(=O)N(C)Cc1cc2cc(C3CC3)ccc2c(=O)n1-c1cccc(-c2cccc(C(N)=O)c2)c1CO [Example 36]  6.24
3. CC#CC(=O)N(C)Cc1cc2cc(C3CC3)ccc2c(=O)n1-c1cccc(-c2cc(C(N)=O)n(C)c2)c1CO [Example 34]  6.28
4. CC#CC(=O)N1CC(c2cc3cc(C4CC4)ccc3c(=O)n2-c2cccc(-c3ccnc(NC)c3)c2CO)C1 [Example 35]  6.28
5. C=CC(=O)N1CC(Cc2cc3cc(C4CC4)ccc3c(=O)n2-c2cccc(-c3ccnc(NC)c3)c2CO)C1 [Example 33]  6.29
6. CN(C#N)Cc1cc2cc(C3CC3)ccc2c(=O)n1-c1cccc(-c2cc(N)c(=O)n(C)c2)c1CO [Example 32]  6.31
7. Cn1cc(-c2cccc(-n3c(C4CCN(C#N)C4)cc4cc(C5CC5)ccc4c3=O)c2CO)cc(N)c1=O (stereo not drawn) [Example 31]  6.32
8. CC#CC(=O)N1CC(c2cc3cc(C4CC4)ccc3c(=O)n2-c2cccc(-c3ccc4[nH]ncc4c3)c2CO)C1 [Example 30]  6.35
9. C/C=C/C(=O)N1CC(c2cc3cc(C4CC4)ccc3c(=O)n2-c2cccc(-c3ccnc(NC)c3)c2CO)C1 [Example 29]  6.36
10. C=CC(=O)N1CC(Cc2cc3cc(C4CC4)ccc3c(=O)n2-c2cccc(-c3ccc4cncn4c3)c2CO)C1 [Example 27]  6.51
11. CC#CC(=O)N1CC(c2cc3cc(C4CC4)ccc3c(=O)n2-c2cccc(-c3cc(N)c(=O)n(C)c3)c2CO)C1 [Example 28]  6.51
12. C=CC(=O)N1CC(Cc2cc3cc(C4CC4)cc(OC)c3c(=O)n2-c2cccc(-c3cc(C(N)=O)n(C)c3)c2CO)C1 [Example 38]  6.60
13. C/C=C/C(=O)N1CC(c2cc3cc(C4CC4)ccc3c(=O)n2-c2cccc(-c3cc(C(N)=O)n(C)c3)c2CO)C1 [Example 26]  6.64
14. C=CC(=O)N1CCC(c2cc3cc(C4CC4)ccc3c(=O)n2-c2cccc(-c3ccn4cncc4c3)c2CO)C1 (stereo not drawn) [Example 25]  6.80
15. C=CC(=O)N(C)Cc1cc2cc(C3CC3)ccc2c(=O)n1-c1cccc(-c2cc(N)c(=O)n(C)c2)c1CO [Example 24]  6.85
16. C=CC(=O)N(C)Cc1cc2cc(C3CC3)ccc2c(=O)n1-c1cccc(-c2ccnc(N)c2)c1CO [Example 23]  6.92
17. CC#CC(=O)N1CC(c2cc3cc(C4CC4)ccc3c(=O)n2-c2cccc(-c3cc(C(N)=O)n(C)c3)c2CO)C1 [Example 19]  7.19
18. C=CC(=O)N1CCC(c2cc3cc(C4CC4)ccc3c(=O)n2-c2cccc(-c3ccncc3)c2CO)C1 (stereo not drawn) [Example 22]  7.43
19. N#CN1CC(c2cc3cc(C4CC4)ccc3c(=O)n2-c2cccc(-c3cccc(C(N)=O)c3)c2CO)C1 [Example 4]  8.30
20. Cn1cc(-c2cccc(-n3c(C4CN(C#N)C4)cc4cc(C5CC5)ccc4c3=O)c2CO)cc(N)c1=O [Example 9]  8.59
21. C=CC(=O)N1CC(Cc2cc3cc(C4CC4)cc(F)c3c(=O)n2-c2cccc(-c3cc(C(N)=O)n(C)c3)c2CO)C1 [Example 41]  9.15
